# According to the METLIN SMRT retention time set (Domingo-Almenara et al. 2019):
# Assay: gradient 5% acetonitrile 3 min, to 50% in 2 min, to 85% in 15 min, held 3 min, 100 µL/min
# Conditions: column: Zorbax Extend-C18 2.1 x 50 mm; eluents: water / acetonitrile, 0.1% formic acid
# How it was run: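 Retention times of pure standards were taken from adduct peaks that were selected by computer and manually inspected. Over 3 months, mixtures of ~100 molecules were run by HPLC–quadrupole time-of-flight mass spectrometry in positive and negative ionization mode. The Zorbax Extend-C18 column (2.1 × 50 mm, 1.8 μm) ran at 100 μL/min in water and acetonitrile, each containing 0.1% formic acid, with 40 μL dead volume and 900 μL dwell volume.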
row,RP-LC retention time,Compound
1,683 s,CCn1cnc2cc(-c3noc(C(C)NS(=O)(=O)c4ccc(C)cc4)n3)ccc21 (stereo not drawn)
2,863 s,CCCn1cc(CCNC(=O)Nc2cc(Cl)ccc2C)c2cccnc21
3,788 s,CCOc1cc(C(=O)Nc2c(-c3ccc(F)cc3)nc3ccccn23)cc(OCC)c1OCC
4,798 s,COc1cc(C(C)c2cc3c(cc2OCCO)OCO3)cc(OC)c1OC (stereo not drawn)
5,800 s,CNC(=O)[C@@H]1C[C@H](Oc2ccccc2)CN1C(=O)CCCc1c[nH]c2ccccc12
6,800 s,COc1ccc(NC(=O)c2c(O)c3cccnc3n(-c3ccc(OC)cc3)c2=O)cc1
7,928 s,CN(C)c1nn(CC(=O)Nc2ccc(F)c(Cl)c2)c(=O)c2ccccc12
8,868 s,CC(C)CC(=O)N1CCc2nc(-c3ccccc3)ncc2C1
9,974 s,COc1ccc(-c2nc(-c3cn(-c4ccc(F)cc4)nn3)no2)c(OC)c1
10,776 s,COc1nn(C)cc1C(=O)Nc1ccccc1SC
11,1040 s,O=C(Nc1cccc(F)c1)C1CCN(S(=O)(=O)c2cc(-c3noc(C4CC4)n3)cs2)CC1
12,678 s,COc1ccc(C(=O)N2C[C@@H]3C[C@H]2C[C@@H]3NC(=O)c2ccccc2)cc1OC
13,934 s,Cc1ccc(NC(=O)N(C)CCc2noc(COc3ccccc3)n2)c(C)c1
14,881 s,CCOC(=O)C1CCN(c2cc(C)nc3nc(-c4ccc(OC)cc4)nn23)CC1
15,741 s,Cc1cc(C)n(CC(=O)N2CCCCC2c2nc(C3CC3)no2)n1 (stereo not drawn)
16,632 s,CCNC(=O)C1CCc2sc(C(=O)N3CCOCC3)cc2C1 (stereo not drawn)
17,888 s,CC(Oc1cccc(Cl)c1)C(=O)N1CCN(c2cc(-c3cccs3)[nH]n2)CC1 (stereo not drawn)
18,836 s,Cc1ccc(CN2CCN(CC(=O)Nc3ccc(Cl)cc3)C(=O)C2=O)cc1
19,938 s,COc1ccc2[nH]cc(CCNC(=O)c3cccc(NC(=O)c4nnc(CC(C)C)s4)c3)c2c1
20,929 s,COc1cccc(Nc2c(-c3cccc(O)c3)nc3cnccn23)c1
21,949 s,Cc1ccc(C(=O)N2CCC(c3nc(-c4ccccc4)no3)C2)s1 (stereo not drawn)
22,760 s,CCc1nnc(-c2ccc3ccn(CC(=O)NCc4cc(OC)c(OC)c(OC)c4)c3c2)o1

row,RP-LC retention time,Compound
1,1050 s,Cc1ccc(Cn2nc3ccc(S(=O)(=O)N4CCc5ccccc5C4)cn3c2=O)cc1
2,1260 s,Cn1nccc1-c1cccc(-c2noc(-c3cccc(Cl)c3)n2)c1
3,880 s,COc1ccc(C)cc1NC(=O)C1CCCN1S(=O)(=O)c1cc2c(cc1C)NC(=O)C(C)O2 (stereo not drawn)
4,887 s,O=C1CCCC(=O)N1CCS(=O)(=O)N1CCN(c2cccc(Cl)c2Cl)CC1
5,672 s,CC(C)n1c(CCNC(=O)Cc2ccc(F)cc2)nc2cccnc21
6,827 s,CCOC(=O)Cn1c(-c2nnc(C)o2)cc2ccccc21
7,630 s,CCCN1CCN(C(=O)c2ccc(S(=O)(=O)c3ccccc3)s2)CC1
8,604 s,CNC(=O)[C@@H]1CN(C(=O)Cc2ccc(Br)cc2)C[C@H]1CO
9,634 s,CCC(C)Sc1nnc(-c2cn(C)nc2OC)n1CCOC (stereo not drawn)
10,679 s,Cc1cc(Nc2nc3ccncc3n(C(C)C)c2=O)ccc1F
11,607 s,CCCc1nnc(NC(=O)c2ccc3[nH]c(C)cc(=O)c3c2)s1
12,702 s,Cn1c(=O)sc2cc(S(=O)(=O)N3CCC(C(=O)N4CCCC4)CC3)ccc21
13,653 s,CCOC(=O)c1ccc(Nc2c(C(=O)N3CCCCC3C)cnc3nc(C)ccc23)cc1 (stereo not drawn)
14,924 s,COc1cc(OC)c(NC(=O)c2cc3c(=O)n(CC(C)C)ccc3n2C)cc1Cl
15,757 s,CCCCNC(=O)C1CCC(=O)N(c2ccc(OC)cc2)C1c1ccc(F)cc1 (stereo not drawn)
16,1340 s,COc1cccc(C2Cn3nnc(-c4nc(-c5ccc(OCc6ccccc6)cc5)no4)c3CO2)c1 (stereo not drawn)
17,1050 s,CCc1nc2cc(-c3noc(-c4ccc(C#N)cc4)n3)ccc2o1
18,1050 s,Cc1ccccc1-c1cc2c(=O)n(Cc3nc(-c4ccc5c(c4)OCO5)no3)ccn2n1
19,691 s,CC(=O)Nc1ccc(N(Cc2nnc3n2CCCCC3)C(=O)Nc2cccc(Cl)c2)cc1
20,822 s,O=S(=O)(Cc1ccc(F)cc1)NCCc1csc2nc(-c3cccs3)nn12
21,660 s,C=CCc1c(C)nc2c(-c3ccccc3)cnn2c1NCCN(C)C
22,737 s,COc1cc(NC(=O)N2CCC(C)(C(=O)NCc3ccc(F)cc3)CC2)cc(OC)c1OC

row,RP-LC retention time,Compound
1,830 s,Cc1ccc(-c2nnc(SCC(=O)Nc3ccc(C)cc3Br)o2)cc1
2,1210 s,Cc1ccc(-c2noc(-c3cccc(S(=O)(=O)NCc4ccccc4)c3)n2)cc1
3,647 s,CCC(=O)Nc1ccc(CCc2nc3ccc(C(=O)NC4CCCCC4)cc3[nH]2)cc1
4,978 s,COc1cc(NC(=O)Nc2nccn(-c3cccc(Cl)c3)c2=O)cc(OC)c1
5,963 s,COc1ccc(-c2nnc(-c3cccc(S(=O)(=O)N4CCCC4)c3)o2)cc1
6,644 s,CN(C(=O)Cn1nc(Cc2ccncc2)c2ccccc2c1=O)c1cccc(Cl)c1
7,685 s,Cc1ccc(-c2nc(-c3ccc4c(c3)ncn4CCN3CCOCC3)no2)cc1C
8,880 s,O=C(Cn1ccc2ccn(Cc3ccccc3F)c2c1=O)NCc1ccc(F)cc1F
9,556 s,CCC(=O)NCc1nc2c(n1C)CN(S(=O)(=O)c1c(C)c(C)cc(C)c1C)CC2
10,663 s,O=C(Nc1ccc2c(c1)OCO2)c1c(O)c2cccnc2n(-c2ccccc2)c1=O
11,909 s,Cc1nc(N2CCOCC2)c2c(C(=O)Nc3ccc(Br)cc3C)c(C)oc2n1
12,851 s,Cc1cc(NC(=O)Cn2cnc3nc4c(cc3c2=O)CCCC4)ccc1Br
13,941 s,O=C(C1CCC1)N1CCc2sc(S(=O)(=O)Nc3cccc(Cl)c3)cc2C1
14,597 s,COCCNc1nc(Nc2ccc(C)c(C)c2)c2nccnc2n1
15,764 s,Cc1ccc(CNC(=O)Cn2c(C)nc3onc(C)c3c2=O)cc1
16,964 s,COC(=O)c1cccc(-c2nc(-c3cn(Cc4ccccc4)nn3)no2)c1
17,780 s,COc1ccc(-c2cn3c(CC(=O)Nc4cc(OC)ccc4OC)csc3n2)cc1
18,600 s,O=C(c1cc2c(s1)CCC(C(=O)N1CCN(c3ccccn3)CC1)C2)N1CCCC1 (stereo not drawn)
19,848 s,COc1ccc(NC(=O)c2cn(C)nc2S(=O)(=O)N2CCSCC2)cc1
20,1080 s,COC(=O)c1cc(C2CC2)nc2c1c(=O)n(Cc1ccccc1F)c(=O)n2C
21,1230 s,COc1ccc(-c2noc(-c3nnn4c3COC(c3ccc(Cl)cc3)C4)n2)cc1F (stereo not drawn)
22,650 s,CO[C@H]1C(=O)N(C(C)C)[C@H]1C1CCN(C(=O)c2sc(C)nc2C)CC1

row,RP-LC retention time,Compound
1,814 s,CCOc1ccccc1N1CCN(C(=O)C2CCN(c3ncnc4c3oc3ccccc34)CC2)CC1
2,631 s,Cc1ccc(-c2ccc(N3CCCC(C(=O)NC4CC4)C3)nn2)cc1 (stereo not drawn)
3,908 s,Cc1cc(Nc2ncccc2S(N)(=O)=O)ccc1Cl
4,827 s,Cc1cc(C)c(-c2noc(C)n2)c(NC(=O)c2cccc(Cl)c2)n1
5,758 s,COc1cccc(C(=O)NC(NC(=O)c2cccc(OC)c2)c2ccc3c(c2)OCO3)c1
6,905 s,CCn1cc2c(n1)c(=O)n(Cc1ccc(F)cc1)c(=O)n2CC(=O)Nc1cc(F)ccc1F
7,691 s,CC(C)n1c(SCC(=O)N(C)C)nnc1-c1ccc2c(c1)OCCCO2
8,602 s,COCC(=O)N1CCC([C@H]2[C@@H](OC)C(=O)N2C(C)C)CC1
9,662 s,O=C(Nc1cccc(Cl)c1F)N1CC(F)(F)C[C@H]1CN1CCCC1
10,1240 s,COC(=O)c1c(C)c(C(=O)C(C)N(CC2CCCCC2)C(=O)c2ccccc2Cl)c(C)n1C (stereo not drawn)
11,877 s,O=C(NCCN1CCCc2ccccc21)C1CCCN(c2ncnc3c2nc2n3CCCCC2)C1 (stereo not drawn)
12,604 s,O=C(O)c1cnc(N2CCOCC2)nc1-c1ccccn1
13,784 s,Cc1ccc(CNC(=O)c2sc(-c3cn(C)c4ncccc34)nc2C)cc1
14,938 s,Cc1cc(C)cc(N2CCC(NC(=O)Nc3ccc(C)cc3C)C2=O)c1 (stereo not drawn)
15,973 s,COc1ccc(-c2nnc(Cc3nc(-c4ccccc4Cl)no3)o2)cc1
16,829 s,Cc1ccc(CNC(=O)C2(C)CN(S(C)(=O)=O)CC(=O)N2c2cc(Cl)ccc2C)cc1 (stereo not drawn)
17,593 s,COCCC(=O)N1CCC2(CCC2O)CC1 (stereo not drawn)
18,1130 s,CCN(Cc1ccccc1)S(=O)(=O)c1c(C)c(-c2nnc(C3CCC3)o2)n(C)c1C
19,705 s,Cc1cccc(-c2ncccc2CNS(=O)(=O)Cc2ccccc2F)c1
20,597 s,CCc1nc2c(N)cccn2n1
21,697 s,COC(=O)c1ccccc1S(=O)(=O)Nc1ccc2c(c1)CCC(=O)N2

row,Compound,RP-LC retention time
1,NC(=O)COc1c(F)cc(SCCNS(=O)(=O)c2ccccc2)cc1F,847 s
